1 molecule from BindingDB's records for doi:10.1021/jm00403a014 (National Institute of Diabetes, Digestive and Kidney …, 1988) can be followed below.

A short description of this test: Binding affinity to sigma site of Phencyclidine receptor by displacement of [3H]-(+)-SKF- 10,047.

In turn, `c1ccc(C2(N3CCCCC3)CCCCC2)cc1` came in with a Ki of 530 nM.
